PubChem BioAssay (NCI)
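At the GI50, growth is halved. At the TGI there is no net growth.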

Columns and labels:
Assay in all cases: DTP human tumour cell line panel, 384-well format
[1] = tested on: NCI-H23 lung
[2] = tested on: NCI-H322M lung
[3] = tested on: NCI-H522 lung
[4] = tested on: NCI/ADR-RES ovarian
[5] = tested on: OVCAR-4 ovarian
[6] = tested on: OVCAR-5 ovarian
[7] = tested on: OVCAR-8 ovarian
[8] = tested on: PC-3 prostate
[9] = tested on: RPMI-8226 leukemia
[10] = tested on: SF-268 CNS
[11] = tested on: SK-MEL-2 melanoma
[12] = tested on: SK-MEL-28 melanoma
[13] = tested on: SK-MEL-5 melanoma
[14] = tested on: SK-OV-3 ovarian
[15] = tested on: SN12C renal
[16] = tested on: SNB-19 CNS
[17] = tested on: SNB-75 CNS
[18] = tested on: SR leukemia
[19] = tested on: SW-620 colon
[20] = tested on: T-47D breast
[21] = tested on: U251 glioblastoma
[22] = tested on: UACC-257 melanoma
[23] = tested on: UACC-62 melanoma
[24] = tested on: UO-31 renal

Structure (SMILES): [2H]c1nc(C)nc([2H])c1-c1cc(NC[C@@H](C)c2cccc3c(C(=O)NC)ccnc23)ncn1
- TGI [1]: > 100 µM
- GI50 [2]: > 100 µM
- TGI [2]: > 100 µM
- GI50 [3]: > 100 µM
- TGI [3]: > 100 µM
- GI50 [4]: > 100 µM
- TGI [4]: > 100 µM
- GI50 [5]: > 100 µM
- TGI [5]: > 100 µM
- GI50 [6]: > 100 µM
- TGI [6]: > 100 µM
- GI50 [7]: > 100 µM
- TGI [7]: > 100 µM
- GI50 [8]: > 100 µM
- TGI [8]: > 100 µM
- GI50 [9]: 70.2 µM
- TGI [9]: > 100 µM
- GI50 [10]: > 100 µM
- TGI [10]: > 100 µM
- GI50 [11]: > 100 µM
- TGI [11]: > 100 µM
- GI50 [12]: > 100 µM
- TGI [12]: > 100 µM
- GI50 [13]: > 100 µM
- TGI [13]: > 100 µM
- GI50 [14]: > 100 µM
- TGI [14]: > 100 µM
- GI50 [15]: > 100 µM
- TGI [15]: > 100 µM
- GI50 [16]: > 100 µM
- TGI [16]: > 100 µM
- GI50 [17]: > 100 µM
- TGI [17]: > 100 µM
- GI50 [18]: 18.9 µM
- TGI [18]: 50.3 µM
- GI50 [19]: > 100 µM
- TGI [19]: > 100 µM
- GI50 [20]: > 100 µM
- TGI [20]: > 100 µM
- GI50 [21]: > 100 µM
- TGI [21]: > 100 µM
- GI50 [22]: > 100 µM
- TGI [22]: > 100 µM
- GI50 [23]: > 100 µM
- TGI [23]: > 100 µM
- GI50 [24]: > 100 µM
- TGI [24]: > 100 µM
